This passage reports EC50, Inhibition and ED50 results from ChEMBL document CHEMBL1136088, “Antitumor agents. Part 218: Cappamensin A, a new In vitro anticancer principle, from Capparis sikkimensis” (2003).

The test system of one assay is HCT-8. As to the kind of experiment: In vitro anticancer activity against human ileocecal tumor cell line (HCT-8). The assay is classed as functional. As to conditions: for EC50: read-out: ED50 (the source's name).
Assay [1] in a line: In vitro anticancer activity against human epidermoid nasopharyngeal tumor cell line (KB). The assay is classed as functional. The following applies: for EC50: read-out: ED50 (the source's name).
Assay [2] can be described thus: In vitro anticancer activity against human ovarian cancer ([…]) cell line. The assay is classed as functional. As to conditions: read-out: ED50 (the source's name).
Another assay deals with MCF7. Put plainly: In vitro anticancer activity against human breast (MCF-7) cell line. The following applies: for EC50: read-out: ED50 (the source's name). The assay is classed as functional.
Another assay has as its system PC-3. As to the kind of experiment: In vitro anticancer activity against human prostate (PC-3) cell line. The assay is classed as functional. The following applies: for EC50: read-out: ED50 (the source's name).
Assay [3] deals with SK-MEL-2. Put plainly: In vitro anticancer activity against human melanoma cancer (SK-MEL-2) cell line. The assay is classed as functional.
Another assay concerns U-87 MG. Put plainly: In vitro anticancer activity against human glioblastoma tumor cell line (U-87-MG). The assay is classed as functional, U-87MG ATCC. As to conditions: for EC50: read-out: ED50 (the source's name).
A further assay deals with A549. Put plainly: In vitro anticancer activity against human lung (A549) cell line. The assay is classed as functional. As to conditions: for EC50: read-out: ED50 (the source's name).
In assay [4] the test system is KB-VIN. As to the kind of experiment: In vitro anticancer activity against human vincristine-resistant tumor cell line (KB-VIN). The following applies: read-out: ED50 (the source's name).
Assay [5] relates to SK-MEL-2. As to the kind of experiment: In vitro anticancer activity against human melanoma cancer (SK-MEL-2) cell line; not active at 20 ug/mL. The assay is classed as functional, cell-based.
Assay [6] has as its system KB-VIN. Put plainly: In vitro anticancer activity against human vincristine-resistant tumor cell line (KB-VIN).

≈ marks a conversion by molar mass, not a printed value. Calls of active or inactive are those of the source. No cut-off for these calls is given here.

As to `COc1ccc2c(c1)OC(C)=C(O)N2C=O`, the EC50 is 3.6 µg/mL (≈ 16.3 µM) in the assay on HCT-8; 4 µg/mL (≈ 18.1 µM) in assay [1]; 2.4 µg/mL (≈ 10.8 µM) in assay [2]; 4 µg/mL (≈ 18.1 µM) in the assay with MCF7; 4.7 µg/mL (≈ 21.2 µM) in the assay with PC-3; over 5 µg/mL in the assay on SK-MEL-2 [3] (read-out: ED50 (the source's name)). In addition, the EC50 in the assay with U-87 MG was over 5 µg/mL; with A549, 3.6 µg/mL (≈ 16.3 µM); in the assay on KB-VIN [4], 3.5 µg/mL (≈ 15.8 µM). The Inhibition in the assay on SK-MEL-2 [3] amounted to 30%; in the assay on U-87 MG, 36%.
For the compound `COC1=C(C)Oc2cc(OC)ccc2N1C=O`, the Inhibition in the assay with HCT-8 came out at 39%; in assay [1], 22%; in the assay on MCF7, 49%; with PC-3, 37%; with U-87 MG, 19%; in the assay on A549, 36%. In addition, the Inhibition in the assay on KB-VIN [6] was 20%. Further, the EC50 in the assay on HCT-8 is over 20 µg/mL; in assay [1], over 20 µg/mL; in assay [2], 20 µg/mL (≈ 85 µM); with MCF7, over 20 µg/mL; with PC-3 it was over 20 µg/mL; in the assay with U-87 MG, over 20 µg/mL. For the same compound, the EC50 with A549 and in the assay on KB-VIN [4] was over 20 µg/mL throughout. The ED50 result in the assay on SK-MEL-2 [5] is “inactive”.

What is called Inhibition is the share of the control response that was lost under treatment. A higher Inhibition goes with a response far below the control.
